Consider three sequences from patent US10960054B2, “Fracture targeted bone regeneration through parathyroid hormone receptor stimulation” (Purdue Research Foundation, priority 2016, dated 2021).

For one data set, the target named is T1, PTHR1 (R^0 conformation) (Homo sapiens, UniProt Q03431).
T1 sequence (Q03431 27-593): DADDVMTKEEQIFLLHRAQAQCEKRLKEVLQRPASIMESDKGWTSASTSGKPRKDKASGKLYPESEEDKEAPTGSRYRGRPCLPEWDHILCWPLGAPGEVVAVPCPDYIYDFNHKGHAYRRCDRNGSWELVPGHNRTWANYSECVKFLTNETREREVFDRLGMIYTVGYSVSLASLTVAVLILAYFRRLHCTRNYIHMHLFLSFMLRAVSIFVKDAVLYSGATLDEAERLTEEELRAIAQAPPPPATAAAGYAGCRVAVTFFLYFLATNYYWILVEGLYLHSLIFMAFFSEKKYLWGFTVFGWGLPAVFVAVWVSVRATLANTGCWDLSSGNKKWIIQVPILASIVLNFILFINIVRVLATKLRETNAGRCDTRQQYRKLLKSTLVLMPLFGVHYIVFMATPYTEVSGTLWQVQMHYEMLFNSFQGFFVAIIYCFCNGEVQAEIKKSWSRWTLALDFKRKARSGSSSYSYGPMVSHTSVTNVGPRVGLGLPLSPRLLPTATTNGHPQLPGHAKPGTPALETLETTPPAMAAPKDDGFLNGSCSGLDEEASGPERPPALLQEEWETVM
To be noted: direct comparative studies; cited from earlier work.

In the next data set the target is T2, PTHR1 (Homo sapiens, UniProt Q03431).
T2 sequence (Q03431 27-593): T1 sequence (Q03431 27-593)
The settings on record: time-course washout assay; cited from earlier work.

In a further data set the test system is femoral fracture callus. As to the kind of experiment: Murine stabilized femoral fracture, microCT analysis of fracture callus. It counts as in vivo, mice. To be noted: for fracture callus densities / bone volume: 3 nmol/kg/day subcutaneous, 14, 28 or 56 days, FIG. 7.
Another data set has as its system MC3T3E1 cells. As to the kind of experiment: Gene expression ratio of bone markers in MC3T3E1 cells. The data set is classed as cell-based. The protocol:
Referring now to FIG. 4, alkaline phosphatase (ALP) expression ratio for both targeted and non-targeted PTHrP were analyzed in MC3T3E1 cells. The ALP ratio is calculated by (Treated ALP expression/Vehicle control ALP expression). Higher expression levels are associated with greater osteoblast activity and is a key protein involved in bone mineralization.
Referring now to FIG. 5, osteopontin (OPN) expression ratio for both targeted and non-targeted PTHrP were analyzed in MC3T3E1 cells. The OPN ratio is calculated by (Treated OPN expression/Vehicle control OPN expression). Higher expression levels are associated with greater osteoblast activity and is a key protein involved in bone mineralization.
Referring now to FIG. 6, gene expression ratio of several key bone markers for both targeted and non-targeted PTHrP were analyzed in MC3T3E1 cells. Activity markers include alkaline phosphatase (ALP), Collagen I-alpha (Col1-alpha), osteocalcin (OC), osteoprotegerin (OPG), osteopontin (OPN, and Osterix (OSX). The gene expression ratio is calculated by (Treated gene expression/Vehicle control gene expression). The targeted PTHrP has activity as low as 1 pM.

A further data set deals with liver and kidneys. The data set can be described thus: Blind histopathology of liver and kidney after 28 days of treatment. To be noted: 31 nmol/kg/day subcutaneous.

Description for liver and kidneys: Referring now to Table 1, mice were treated with 31 nmol/kg/day subcutaneous injections of PTHrPD10 (“Targeted Drug”) or saline. Swiss ND4 mice were treated for 28 days. Mice were sacrificed at the end of the study and liver and kidneys were excised. Organs were fixed in formalin and paraffin sections were made from each. A veterinary pathologist performed a randomized blind analysis on the organs.

On to “SVSEIQLMHNLGKHLNSMERVEWLRKKLQDVHNF [PTH(1-34)]”, for which, in the data set with PTHR1 (R^0 conformation), the “affinity for the R^0 state” value is recorded as “much higher affinity for R^0 than PTHrP(1-36)”. The “duration of the cAMP response” value with PTHR1 is “more prolonged response than PTHrP(1-36)”.

With “SVSEIQLMHNLGKHLNSMERVEWLRKKLQDVHNFVALGAPLAPRDADDDDDDDDDD (PTH1-46D10) [PTH 1-46D10]”, in the data set with femoral fracture callus (2 weeks, fracture callus, vs saline, FIG. 3), the “bone density (microCT)” value is reported as “statistically denser than saline controls”.

For the sequence “VSEHQLLHDKGKSIQDLRRRFFLHHLIAEIHTAGIRATSEVSPNSDDDDDDDDDD [PTHrP1-46D10]”, the figures for the “fracture callus densities / bone volume” value in the data set on femoral fracture callus (listed as targeted PTHrP) and with femoral fracture callus (listed as targeted drug) were “Greater densities can be observed in the targeted PTHrP over the free PTHrp at every time point” and “not only improves fracture healing but that it also accelerates fracture healing”, respectively. The “bone densities around fractures (microCT)” value in the data set on femoral fracture callus (31 nmol/kg/day, daily for 4 weeks, closed femoral fracture, FIG. 1) is “increased bone densities around fractures significantly higher than that of free PTHrP and Saline”. Further, in the data set on femoral fracture callus (4 weeks, fracture callus, vs saline, FIG. 2), the “trabecular spacing (microCT)” value is recorded as “statistically tighter spacing than does the saline control”. Besides, the “concentration at which gene expression activity is seen (activity as low as)” value in the data set with MC3T3E1 cells (ALP, Col1-alpha, OC, OPG, OPN, OSX, FIG. 6) is on record as at most 1 pM. Besides, the “osteopontin (OPN) expression ratio” value in the data set on MC3T3E1 cells (treated/vehicle control, FIG. 5) was “does not reduce the efficacy of the drug”. In addition, the “alkaline phosphatase (ALP) expression ratio” value with MC3T3E1 cells (treated/vehicle control, standardized to GAPDH, FIG. 4) is “does not reduce the efficacy of the drug”. In the data set with liver and kidneys, the “toxicity, overall pathologist assessment of liver and kidney” value is reported as “No detectable toxicity was observed”.
